Assay results published in US20040242459A1 (priority 2001, published 2004).
Marks after values point to notes of the source that are not given here.

Columns and labels:
[1] = system: adjuvant-induced arthritis in female Lewis rats; details: for Secondary Foot Volume % Inhibition Compared to Vehicle Day 21-0 / Change in Secondary Foot Volume Day 21-0 / Change in Secondary Foot Volume Day 14-0 / Secondary Foot Volume % Inhibition Compared to Vehicle Day 14-0: contralateral paw; for Change in Secondary Foot Volume Day 21-0: mean, SD wrapped to next line; for Change in Secondary Foot Volume Day 14-0 / Change in Primary Foot Volume Day 4-0 / change in body weight Day 21-0 / change in body weight Day 14-0: p.o. q.d.; for Change in Secondary Foot Volume Day 14-0 / Change in Primary Foot Volume Day 4-0 / change in body weight Day 14-0: Compounds 1, 2, 4, 6 30 mg/kg/day; for Change in Secondary Foot Volume Day 14-0 / Change in Primary Foot Volume Day 4-0: Compound 3 50, Compound 5 100, indomethacin 2; for Change in Secondary Foot Volume Day 14-0 / Change in Primary Foot Volume Day 21-0 / Change in Primary Foot Volume Day 4-0 / Change in Primary Foot Volume Day 14-0 / radiographic total scores on day 21, Primary (injected) paw / radiographic total scores on day 21, Secondary (contralateral) Paw / change in body weight Day 21-0 / change in body weight Day 14-0 / Spleen / Thymus (mg) / Thymus: mean ± SD; for Secondary Foot Volume % Inhibition Compared to Vehicle Day 14-0 / Primary Foot Volume % Inhibition Compared to Vehicle Day 4-0 / Primary Foot Volume % Inhibition Compared to Vehicle Day 14-0 / Change in Primary Foot Volume Day 14-0: same doses p.o. q.d.; for radiographic total scores on day 21, Primary (injected) paw / radiographic total scores on day 21, Secondary (contralateral) Paw: maximum score per foot 26; for change in body weight Day 21-0: indomethacin 2 mg/kg/day; for change in body weight Day 14-0: Compound 3 50, Compound 5 100, indomethacin 2 mg/kg/day; for body weight gain compared with vehicle-treated animals: prophylactic, Compound 1 30 mg/kg q.d.; for Spleen / Thymus (mg) / Thymus: weight at necropsy, day of euthanasia 21 (Compound 1, indomethacin) or 15 (Compounds 2-6); for prevention of swelling of primary or secondary paws: up to day 14, rats then euthanized
Description: Nine groups of 10 rats each were injected with an emulsion containing 0.5 mg of Mycobacterium butyricum in 0.1 ml of light mineral oil, and a negative control group of 10 rats was not injected with adjuvant. Body weights, primary (injected) and contralateral (non-injected) paw volumes (determined by mercury displacement plethysmography) and lateral radiographs (obtained under Ketamine and Xylazine anesthesia) were determined before (day-1) and at various time points including 21 days following adjuvant injection. The rats were anesthetized with an intramuscular injection of 0.03-0.1 ml of a combination of Ketamine (87 mg/kg) and Xylazine (13 mg/kg) for radiographs and injection of adjuvant. Lateral to medial radiographs were made of both hind paws on days 0 and 21 for using the Faxitron (45 kVp, 30 seconds or 45 kVp, 1 second) and Kodak X-OMAT TL film, and were developed in an automatic processor. […] Specific criteria were used to establish the numerical grade of severity for each radiographic change. The maximum possible score per foot was 26. Compounds or vehicle were administered prophylactically beginning post injection of adjuvant and continuing for 21 days. The Compounds were prepared weekly, refrigerated in the dark until used, and vortex mixed immediately prior to administration. […] The liver, thymus and spleens of all rats were removed and weighed and both hind paws were removed and radiographed.
Two-factor (‘treatment’ and ‘time’) analysis of variance with repeated measures on ‘time’ were applied to the percent changes for body weight and foot volumes and to the rank-transformed radiographic total scores. A post hoc Dunnett's test was conducted to compare the effect of treatments to vehicle. A one-way analysis of variance was applied to the thymic and spleen weights followed by the Dunnett's test to compare the effect of treatments to vehicle.
Compounds or vehicle (0.5% Methocel in sterile water) were administered by oral gavage once daily for 21 days following induction of arthritis in female Lewis rats via the sub plantar injection of 0.1 ml of light mineral oil containing 0.5 mg of Mycobacterium butyricum. Control animals were not injected with adjuvant. Body weights were measured 1 day prior to (i.e. day 0) and at 14 and 21 days post induction of arthritis. The data in Table 1 represent the mean increase or decrease in body weight ±1 standard deviation for groups of 9 to 10 animals.
Compounds or vehicle (0.5% Methocel in sterile water) were administered by oral gavage once daily for 21 days following induction of arthritis in female Lewis rats via the sub plantar injection of 0.1 ml of light mineral oil containing 0.5 mg of Mycobacterium butyricum. Control animals were not injected with adjuvant.
(§1) Injected foot volumes were measured by mercury displacement plethysmography prior to induction of arthritis, and on days 4, 14 and 21 post induction of arthritis. The data represent the mean increase in foot volume ±1 standard deviation for groups of 9 to 10 animals. The extent of paw swelling in compound-treated animals was compared to the mean of that in the vehicle-treated group, and percentage inhibition was calculated for each dose level of compound.
as §1, with “Contralateral foot” for “Injected foot”, “prior to,” for “prior to induction of arthritis,”, “and at” for “and on”, “days” for “days 4,”
[…] Data represent the mean weights of organs in mg ±1 standard deviation for groups of 9 to 10 animals.
Total radiographic scores were derived from examination of lateral radiographs obtained prior to, and on day 21 post induction of arthritis.

[2] = system: PPAR-α, PPAR-γ and PPAR-δ; experiment: Classification of ligands according to their PPAR activity (Table A); design: species or system human; details: classification based on IC50 and EC50 data of Table B
[3] = target: T1, recombinant human PPARδ (GST-PPARδ) (Homo sapiens, UniProt Q03181); experiment: Scintillation Proximity Assay, displacement of [3H2]Compound B from PPARδ; type: binding; details: SPA, radioligand
T1 construct: The full length human cDNAs for PPARδ and PPARα were subcloned into the pGEX-KT expression vector; made in house; host or cells: E. coli
T1 sequence (Q03181 1-441): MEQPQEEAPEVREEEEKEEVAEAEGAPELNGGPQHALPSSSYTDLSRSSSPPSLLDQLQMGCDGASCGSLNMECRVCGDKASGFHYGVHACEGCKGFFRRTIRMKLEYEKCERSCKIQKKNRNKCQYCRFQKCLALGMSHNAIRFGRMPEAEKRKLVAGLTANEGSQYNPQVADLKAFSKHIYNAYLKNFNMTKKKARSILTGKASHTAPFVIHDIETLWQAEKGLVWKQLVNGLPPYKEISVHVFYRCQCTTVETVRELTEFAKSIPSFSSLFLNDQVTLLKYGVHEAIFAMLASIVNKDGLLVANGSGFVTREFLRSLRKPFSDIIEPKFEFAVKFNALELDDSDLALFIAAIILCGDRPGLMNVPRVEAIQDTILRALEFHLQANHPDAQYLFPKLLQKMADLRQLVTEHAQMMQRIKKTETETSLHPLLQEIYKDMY
Description: As an approach to identifying human PPAR agonists, a Scintillation Proximity Assay was used to characterize PPAR-γ, PPAR-δ, and PPAR-α ligands.
Human PPARγ2, human PPARδ and human PPARα were expressed as GST-fusion proteins in E. coli. The full length human cDNA for PPARγ 2 was subcloned into the pGEX-2 T expression vector (Amersham Pharmacia Biotech, Inc.). The full length human cDNAs for PPARδ and PPARα were subcloned into the pGEX-KT expression vector (Amersham Pharmacia Biotech, Inc.). E. coli containing the respective plasmids were propagated, induced, and harvested by centrifugation. The resuspended pellet was broken in a French press and debris removed by centrifugation. Recombinant human PPAR receptors were purified by affinity chromatography on glutathione sepharose. After application to the column, and one wash, receptor was eluted with glutathione. Glycerol (10%) was added to stabilize the receptor and aliquots were stored at −80° C.
After incubation for ˜16 h at 15° C. with shaking, the assay plates were counted in a Packard Topcount with quench correction.

[4] = Compound 1 30 mg/kg/day, indomethacin 2 mg/kg/day p.o. q.d.
[5] = day 21, 30 mg/kg q.d. prophylactic
[6] = injected paw, Compound 1 30 mg/kg/day, indomethacin 2 mg/kg/day p.o. q.d.

| SMILES | Secondary Foot Volume % Inhibition Compared to Vehicle Day 21-0 [1, 4] | Change in Secondary Foot Volume Day 21-0 [1, 4] | Change in Secondary Foot Volume Day 14-0 [1] | Secondary Foot Volume % Inhibition Compared to Vehicle Day 14-0 [1] | radiographic total scores of contralateral paws compared with vehicle ([1]; day 21) | Change in Primary Foot Volume Day 21-0 [1, 6] | Change in Primary Foot Volume Day 4-0 ([1]; injected paw) | Primary Foot Volume % Inhibition Compared to Vehicle Day 4-0 ([1]; injected paw) | Primary Foot Volume % Inhibition Compared to Vehicle Day 14-0 ([1]; injected paw) | Change in Primary Foot Volume Day 14-0 ([1]; injected paw) | radiographic total scores on day 21, Primary (injected) paw [1, 4] | radiographic total scores on day 21, Secondary (contralateral) Paw [1, 4] | change in body weight Day 21-0 ([1]; Compound 1 30 mg/kg/day) | change in body weight Day 14-0 [1] | body weight gain compared with vehicle-treated animals [1] | degree of thymic involution compared with vehicle ([1]; rat, in vivo) | Spleen [1] | Thymus (mg) [1] | prevention of swelling of primary or secondary paws [1] | Thymus [1] | further results |
| --- | --- | --- | --- | --- | --- | --- | --- | --- | --- | --- | --- | --- | --- | --- | --- | --- | --- | --- | --- | --- | --- |
| Cc1cc(SCc2sc(-c3ccc(C(F)(F)F)cc3)nc2C)ccc1OCC(=O)O.[Na+] [Compound 1] | 77.8% | 246.0 µL | 38 ± 161^++ μL | 92.4% | significantly less | 2612 ± 909 µL | 1510 ± 523^+ μL | 23.1% | 30.0% | 1530 ± 659**^++ μL | 13.0 ± 7.2 | 1.8 ± 3.3^++ | 2.9 ± 7.4**^++ grams | 1.9 ± 6.6**^++ grams | gained more weight than did vehicle-treated animals | less severe | 601.0 ± 52.8 mg | 275.0 ± 50.4**^++ mg |  |  | swelling of the contralateral (secondary) paw [1, 5]: inhibited the day 21 swelling of the contralateral (secondary) paw; swelling of the primary (injected) paw [1, 5]: did not affect the swelling of the primary (injected) paw; Liver (mg) ([1]; rat, in vivo): 1209.0 ± 129.0**^++ mg; liver weight compared with vehicle ([1]; rat, in vivo): significantly heavier |
| Cc1cccc(Nc2cc(Cl)nc(SCC(=O)O)n2)c1C [Compound 4, WY-14643, reference compound] |  |  | 704 ± 421 µL | 22.1% |  |  | 2133 ± 266 µL | 0% |  | 2585 ± 733 µL |  |  |  | −15.2 ± 6.8 grams |  |  | 665.1 ± 69.8 mg |  | failed to prevent swelling of either the primary or secondary paws | 146.8 ± 33.4 mg | PPAR Activity [2]: Alpha Agonist |
| CC(C)OC(=O)C(C)(C)Oc1ccc(C(=O)c2ccc(Cl)cc2)cc1 [Compound 5, Fenofibrate, reference compound] |  |  | 824 ± 186 µL |  |  |  | 1421 ± 212^+ μL |  |  | 1945 ± 415 µL |  |  |  | −7.6 ± 5.3 grams |  |  | 644.4 ± 159.2 mg |  | failed to prevent swelling of either the primary or secondary paws | 155.3 ± 27.8 mg |  |
| CN(CCOc1ccc(CC2SC(=O)NC2=O)cc1)c1ccccn1 (stereo not drawn) [Compound 6, Rosiglitazone, reference compound] |  |  |  |  |  |  |  |  |  |  |  |  |  | 0.4 ± 6.4**^++ grams |  |  | 634.5 ± 91.4 mg |  | failed to prevent swelling of either the primary or secondary paws | 187.8 ± 50.4 mg | PPAR Activity [2]: Gamma Agonist |
| CCCc1c(OCCCSc2ccc(CC(=O)O)cc2Cl)ccc2c(C(F)(F)F)noc12 [Compound B, 3-chloro-4-(3-(7-propyl-3-trifluoromethyl-6-benz-[4,5]-isoxazoloxy)propylthio)phenylacetic acid, reference compound] |  |  |  |  |  |  |  |  |  |  |  |  |  |  |  |  |  |  |  |  | Kd [3]: ~1 nM |
| COc1ccc2c(c1)c(CC(=O)O)c(C)n2C(=O)c1ccc(Cl)cc1 [Indomethacin, indomethacin, reference compound] | 79.2% | 201.0 µL | 275 ± 138^++ μL | 62.0% | significantly less | 499 ± 135^++ μL | 798 ± 164^++ μL | 59.2% | 65.7% | 799 ± 159*^++ μL | 4.3 ± 1.3^++ | 3.3 ± 1.3**^++ | 11.6 ± 8.0**^++ grams | 8.6 ± 7.7**^++ grams | gained more weight than did vehicle-treated animals | less severe | 738.0 ± 124.0 mg | 426.0 ± 69.0^++ mg |  |  | radiographic total scores of primary paws compared with vehicle ([1]; day 21): significantly less; Primary Foot Volume % Inhibition Compared to Vehicle Day 21-0 [1, 6]: 79.2%; Liver ([1]; rat, in vivo): 866.0 ± 86.0 mg |
